From US20200208128A1, “METHODS OF TREATING LIVER DISEASES” (CAMP4 THERAPEUTICS CORPORATION, priority 2017, published 2020)
“Also recorded” adds a separate entry of the source.

Legend:
[1] = test system: PNPLA3; assay: qRT-PCR validation of PNPLA3 expression in primary human hepatocytes; assay type: cell-based
Experimental: Cryopreserved hepatocytes were cultured in plating media for 16 hours, transferred to maintenance media for 4 hours. Cultured on serum-free media for 2 hours, then a compound was added. The hepatocytes were maintained on the serum-free media for 16 hours prior to gene expression analysis. Primary Human Hepatocytes were stored in the vapor phase of a liquid nitrogen freezer (about −130° C.).
(§5) Human hepatocytes cultured as described above were plated in 24-well format, adding 375,000 cells per well in a volume of 500 ul plating medium. Four hours before treatment, cells were washed with PBS and the medium was changed to either: fresh maintenance medium (complete) or modified maintenance medium.
Compound stocks were prepared at 1000× final concentration and added in a 2-step dilution to the medium to reduce risk of a compound precipitating out of solution when added to the cells, and to ensure reasonable pipetting volumes. One at a time, each compound was first diluted 10-fold in warm (about 37° C.) modified maintenance medium (initial dilution=ID), mixed by vortexing, and the ID was diluted 100-fold into the cell culture (e.g. 5.1 μl into 1 well of a 24-well plate containing 0.5 mL medium). The plate was mixed by carefully swirling and after all wells were treated and returned to the incubator overnight. If desired, separate plates/wells were treated with vehicle-only controls and/or positive controls. If using multi-well plates, controls were included on each plate.
Samples were amplified using the following Taqman probes from ThermoFisher for each target: Hs01552217_m1 (human PNPLA3).
Analysis of the fold changes in expression as measured by qRT-PCR were performed using the technique below. The control was DMSO, and the treatment was the selected compound (CPD). The internal control was GAPDH or B-Actin (or otherwise indicated), and the gene of interest is the target. First, the averages of the 4 conditions were calculated for normalization: DMSO:GAPDH, DMSO:Target, CPD: GAPDH, and CPD:Target. Next, the ΔCT of both control and treatment were calculated to normalize to internal control (GAPDH) using (DMSO:Target)−(DMSO:GAPDH)=ΔCT control and (CPD:Target)−(CPD: GAPDH)=ΔCT experimental. Then, the ΔΔCT was calculated by ΔCT experimental−ΔCT control. The Expression Fold Change (or Relative Quantification, abbreviated as RQ) was calculated by 2−(ΔΔCT) (2-fold expression change was shown by RNA-Seq results provided herein).
Candidate compounds were subjected to validation with qRT-PCR in human hepatocytes. qRT-PCR was performed on samples of primary human hepatocytes from a second donor treated with the candidate compounds. Compounds were tested at concentrations ranging from 0.01 μM to 50 μM, with the majority tested at 10 μM.

[2] = test system: COL1A1; assay: qRT-PCR of COL1A1 mRNA in hepatic stellate cells; assay type: cell-based, human; settings: for Relative COLIA1 mRNA levels RQ: four technical replicates; for Effect on COL1A1 expression in stellate cells: serial dilutions; for Relative COL1A1 mRNA levels RQ: fold change vs DMSO
Experimental: (§1) Human Primary Stellate cells (HSC) (ScienceCell Cat #5300) were originally isolated from the liver of a donor. Cells were plated in Stellate Cell Medium (SteCM) (ScienCell Cat #5301) on black clear bottom plates (GREINER BIO-ONE:82050-730) coated with 2 μg/cm^2 PolyLLysine (PLL) (ScienceCell Cat #0413). Cells were plated at a density of 17000 cells/well in a 96-well plate and allowed to adhere overnight. The following day cell culture media was replenished with the indicated concentration(s) of compound for 18 hours. […] Medium was removed after 18 hours and cells were processed for further analysis, e.g. qRT-PCR.
(§2) In some examples, RQ Min and RQ Max values are also reported. RQ Min and RQ Max are the minimum and maximum relative levels of gene expression in the test samples, respectively. They were calculated using the confidence level set in the analysis settings and the confidence level was set to one standard deviation (SD). These values were calculated using standard deviation as follows: […].
Candidate compounds were tested in stellate cells for their ability to modulate PNPLA3 and COL1A1. […] Changes in PNPLA3 (or COL1A1) mRNA levels in stellate cells were analyzed with qRT-PCR. Once compounds capable of downregulating PNPLA3 and/or COL1A1 were identified, additional compounds that are known to act in the same pathways were also tested. Transforming growth factor beta (TGF-beta) is known to induce fibrotic genes including COL1A1 in vitro, and was thus chosen as a positive control (i.e., positively regulate COL1A1 expression).

[3] = test system: PNPLA3; assay: qRT-PCR of PNPLA3 mRNA in hepatic stellate cells; assay type: cell-based, human; settings: for Effect on PNPLA3 mRNA levels in stellate cells: serial dilutions; for Relative PNPLA3 mRNA levels RQ: fold change vs DMSO
Experimental: as §1, §2
Candidate compounds were tested in stellate cells for their ability to modulate PNPLA3 and COL1A1. Stellate cells were treated with serial dilutions of the compounds, ranging from 0.1 μM to 100 μM. Changes in PNPLA3 (or COL1A1) mRNA levels in stellate cells were analyzed with qRT-PCR. Once compounds capable of downregulating PNPLA3 and/or COL1A1 were identified, additional compounds that are known to act in the same pathways were also tested. Transforming growth factor beta (TGF-beta) is known to induce fibrotic genes including COL1A1 in vitro, and was thus chosen as a positive control (i.e., positively regulate COL1A1 expression).

[4] = target: stem cell growth factor receptor (SCFR or c-Kit) (Homo sapiens, UniProt P10721); settings: cited from earlier work
[5] = test system: PNPLA3; assay: RNA-seq of compound-treated primary human hepatocytes: PNPLA3 expression; assay type: cell-based
Experimental: (§6) Cryopreserved hepatocytes were cultured in plating media for 16 hours, transferred to maintenance media for 4 hours. Cultured on serum-free media for 2 hours, then a compound was added. The hepatocytes were maintained on the serum-free media for 16 hours prior to gene expression analysis.
as §5
Compound stocks were prepared at 1000× final concentration and added in a 2-step dilution to the medium to reduce risk of a compound precipitating out of solution when added to the cells, and to ensure reasonable pipetting volumes. One at a time, each compound was first diluted 10-fold in warm (about 37° C.) modified maintenance medium (initial dilution=ID), mixed by vortexing, and the ID was diluted 100-fold into the cell culture (e.g. 5.1 μl into 1 well of a 24-well plate containing 0.5 mL medium). The plate was mixed by carefully swirling and after all wells were treated and returned to the incubator overnight. If desired, separate plates/wells were treated with vehicle-only controls and/or positive controls. If using multi-well plates, controls were included on each plate. After about 18 hours, cells were harvested for further analysis, e.g., ChIP-seq, RNA-seq, ATAC-seq, etc.
The expression level of each gene was quantified with normalized FPKM (fragments per kilobase of exon per million mapped fragments). The differentially expressed genes were called using Cuffdiff v2.2.1 with q value <0.01 and log 2fold change >=1 or <=−1.
RNA-seq was performed to determine the effects of the compounds on PNPLA3 expression in hepatocytes. Fold change was calculated by dividing the level of expression in the cell system that had been perturbed by the level of expression in an unperturbed system. Changes in expression having a p-value ≤0.05 were considered significant.

[6] = target: T1, FLT3 (Homo sapiens, UniProt P36888); settings: cited from earlier work
T1 construct: IC50; other: FLT3
T1 sequence (P36888 1-993 D835Y): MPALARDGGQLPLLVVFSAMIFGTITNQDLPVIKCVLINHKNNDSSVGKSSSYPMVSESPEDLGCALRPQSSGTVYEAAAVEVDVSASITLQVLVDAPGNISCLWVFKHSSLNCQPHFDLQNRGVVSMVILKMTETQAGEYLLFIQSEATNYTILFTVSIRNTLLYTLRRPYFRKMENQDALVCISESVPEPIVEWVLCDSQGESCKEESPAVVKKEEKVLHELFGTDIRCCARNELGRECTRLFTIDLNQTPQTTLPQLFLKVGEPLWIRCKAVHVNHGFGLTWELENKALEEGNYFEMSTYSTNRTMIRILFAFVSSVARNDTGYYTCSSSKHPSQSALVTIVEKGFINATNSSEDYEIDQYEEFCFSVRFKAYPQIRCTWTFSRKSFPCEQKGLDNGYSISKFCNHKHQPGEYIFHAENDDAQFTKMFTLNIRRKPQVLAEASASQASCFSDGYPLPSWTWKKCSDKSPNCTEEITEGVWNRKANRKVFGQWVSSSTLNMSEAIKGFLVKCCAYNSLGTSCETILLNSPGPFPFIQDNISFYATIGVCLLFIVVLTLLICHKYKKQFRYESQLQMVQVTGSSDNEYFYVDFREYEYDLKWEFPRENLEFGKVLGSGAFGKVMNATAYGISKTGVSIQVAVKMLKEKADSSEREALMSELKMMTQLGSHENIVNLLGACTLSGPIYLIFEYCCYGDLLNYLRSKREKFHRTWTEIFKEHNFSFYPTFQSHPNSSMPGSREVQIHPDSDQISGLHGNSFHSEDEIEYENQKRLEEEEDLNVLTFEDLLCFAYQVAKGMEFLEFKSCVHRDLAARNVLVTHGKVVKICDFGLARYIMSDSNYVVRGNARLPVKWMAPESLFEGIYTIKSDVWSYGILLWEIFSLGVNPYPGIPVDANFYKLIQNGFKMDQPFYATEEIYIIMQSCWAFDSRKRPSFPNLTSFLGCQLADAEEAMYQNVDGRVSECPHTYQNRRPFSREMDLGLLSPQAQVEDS

[7] = target: Platelet-derived growth factor receptor alpha (PDGFRα) (Homo sapiens, UniProt P16234); settings: cited from earlier work
[8] = test system: PNPLA3; assay: In vivo compound testing in mice: PNPLA3 expression in liver (qRT-PCR); parameters: species or system mouse; settings: wild-type mice, 50 mg/kg once daily oral gavage, four days
Experimental: (§3) A group of 6 mice (C57BL/6J strain), 3 male and 3 female, were administered with a candidate compound once daily via oral gavage for four consecutive days. Mice were sacrificed 4 hours post-last dose on the fourth day. Organs including liver, spleen, kidney, adipose, plasma were collected. Mouse liver tissues were pulverized in liquid nitrogen and aliquoted into small microtubes. TRIzol (Invitrogen Cat #15596026) was added to the tubes to facilitate cell lysis from tissue samples. The TRIzol solution containing the disrupted tissue was then centrifuged and the supernatant phase was collected. Total RNA was extracted from the supernatant using Qiagen RNA Extraction Kit (Qiagen Cat #74182) and the target mRNA levels were analyzed using qRT-PCR.
(§4) Candidate compounds were administered at an appropriate dose once daily to a group of wild-type mice consisting of 3 male and 3 female mice. Mice were sacrificed on the fourth day and liver tissue was collected and analyzed for PNPLA3 (or COL1A1) expression by qRT-PCR. […] When COL1A1 was analyzed, a stellate cell specific gene GFAP was used as a house-keeping control.

[9] = test system: PNPLA3 (I148M mutation), HepG2 cells; assay: qRT-PCR of mutant PNPLA3 expression in HepG2 cells; assay type: cell-based
Experimental: HepG2 cells were plated in 24 well format at 100,000 cells per well in 500 μl DMEM. […] The following morning, the cells were harvested for RNA extraction.
Candidate compounds were evaluated in a PNPLA3 mutant cell line HepG2 to test their effects on mutant PNPLA3 expression. The HepG2 cells have the I148M mutation in PNPLA3. Changes in PNPLA3 expression in HepG2 cells were analyzed with qRT-PCR. PNPLA3 mRNA levels were normalized to the geometric mean of two internal controls, GUSB and B2M.

[10] = In vivo compound testing in mice: body weight, organ weight, other liver genes; parameters: species or system mouse; settings: 50 mg/kg once daily, four days
Experimental: as §3, §4

[11] = test system: JNK; settings: cited from earlier work
[12] = test system: PNPLA3; assay: qRT-PCR of PNPLA3 expression in mouse hepatocytes; assay type: cell-based
Experimental: Analysis of the fold changes in expression as measured by qRT-PCR were performed using the technique below. The control was DMSO, and the treatment was the selected compound (CPD). The internal control was GAPDH or B-Actin (or otherwise indicated), and the gene of interest is the target. First, the averages of the 4 conditions were calculated for normalization: DMSO:GAPDH, DMSO:Target, CPD: GAPDH, and CPD:Target. Next, the ΔCT of both control and treatment were calculated to normalize to internal control (GAPDH) using (DMSO:Target)−(DMSO:GAPDH)=ΔCT control and (CPD:Target)−(CPD: GAPDH)=ΔCT experimental. Then, the ΔΔCT was calculated by ΔCT experimental−ΔCT control.
Compounds were tested at concentrations ranging from 0.01 μM to 50 μM. […] PNPLA3 levels were normalized to the level of a house keeping gene ACTB.

[13] = test system: COL1A1; assay: In vivo compound testing in mice: COL1A1 expression in liver (qRT-PCR); parameters: species or system mouse; settings: wild-type mice, 50 mg/kg once daily oral gavage, four days, GFAP as house-keeping control
Experimental: as §3, §4

[14] = test system: PNPLA5; assay: RNA-seq of compound-treated primary human hepatocytes: PNPLA5 expression; assay type: cell-based
Experimental: as §6, §5
Compound stocks were prepared at 1000× final concentration and added in a 2-step dilution to the medium to reduce risk of a compound precipitating out of solution when added to the cells, and to ensure reasonable pipetting volumes. One at a time, each compound was first diluted 10-fold in warm (about 37° C.) modified maintenance medium (initial dilution=ID), mixed by vortexing, and the ID was diluted 100-fold into the cell culture (e.g. 5.1 μl into 1 well of a 24-well plate containing 0.5 mL medium). […]
The expression level of each gene was quantified with normalized FPKM (fragments per kilobase of exon per million mapped fragments). […]
Fold change was calculated by dividing the level of expression in the cell system that had been perturbed by the level of expression in an unperturbed system. […]

stem cell growth factor receptor (SCFR or c-Kit), sequence (P10721 whole entry D816H, form open): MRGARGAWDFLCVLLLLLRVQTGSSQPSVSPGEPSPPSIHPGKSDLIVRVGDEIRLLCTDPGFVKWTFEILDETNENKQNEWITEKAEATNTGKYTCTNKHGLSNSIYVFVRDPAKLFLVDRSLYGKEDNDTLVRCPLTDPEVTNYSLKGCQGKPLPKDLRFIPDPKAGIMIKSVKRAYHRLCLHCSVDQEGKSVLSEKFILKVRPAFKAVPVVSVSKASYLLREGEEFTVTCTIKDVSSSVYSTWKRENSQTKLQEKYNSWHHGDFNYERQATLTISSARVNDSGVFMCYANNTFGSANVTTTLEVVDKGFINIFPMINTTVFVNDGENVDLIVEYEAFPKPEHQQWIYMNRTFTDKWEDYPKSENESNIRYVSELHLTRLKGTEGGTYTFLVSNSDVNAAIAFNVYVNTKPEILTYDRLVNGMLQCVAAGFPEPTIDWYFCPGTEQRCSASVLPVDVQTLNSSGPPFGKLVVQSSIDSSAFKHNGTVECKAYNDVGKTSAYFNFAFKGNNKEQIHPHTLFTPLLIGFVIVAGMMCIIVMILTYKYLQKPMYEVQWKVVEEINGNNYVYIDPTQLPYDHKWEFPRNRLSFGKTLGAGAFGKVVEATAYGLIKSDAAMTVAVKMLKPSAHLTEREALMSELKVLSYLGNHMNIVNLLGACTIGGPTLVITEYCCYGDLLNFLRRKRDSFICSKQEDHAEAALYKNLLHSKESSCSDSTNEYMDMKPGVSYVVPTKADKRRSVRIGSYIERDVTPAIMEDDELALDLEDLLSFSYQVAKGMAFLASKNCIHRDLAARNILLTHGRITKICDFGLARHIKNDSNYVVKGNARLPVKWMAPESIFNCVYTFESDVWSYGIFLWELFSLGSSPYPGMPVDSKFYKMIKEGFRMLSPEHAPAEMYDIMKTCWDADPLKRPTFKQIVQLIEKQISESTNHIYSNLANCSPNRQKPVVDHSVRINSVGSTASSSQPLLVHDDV
Platelet-derived growth factor receptor alpha (PDGFRα), sequence (P16234 593-954 limits assumed): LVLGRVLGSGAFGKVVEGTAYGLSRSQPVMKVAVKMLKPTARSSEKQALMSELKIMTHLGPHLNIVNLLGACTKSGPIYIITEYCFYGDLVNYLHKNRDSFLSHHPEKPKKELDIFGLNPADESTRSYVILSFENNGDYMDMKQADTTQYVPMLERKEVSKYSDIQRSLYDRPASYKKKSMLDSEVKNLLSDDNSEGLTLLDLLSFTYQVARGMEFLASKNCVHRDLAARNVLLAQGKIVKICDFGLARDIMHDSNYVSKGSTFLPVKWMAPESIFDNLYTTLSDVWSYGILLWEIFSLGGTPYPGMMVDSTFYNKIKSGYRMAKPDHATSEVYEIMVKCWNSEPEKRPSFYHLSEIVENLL

Cc1cc(Nc2nc(N[C@@H](C)c3ncc(F)cn3)ncc2Cl)[nH]n1 [AZD1480]
Effect on PNPLA3 expression in human hepatocytes [1]: efficient downregulation

CN1CCN(S(=O)(=O)c2ccc(-c3cnc(N)c(C(=O)Nc4cccnc4)n3)cc2)CC1 [AZD2858]
Relative COLIA1 mRNA levels RQ ([2]; 1 μM): 0.83
Relative COLIA1 mRNA levels RQ ([2]; 10 μM): 0.72
Effect on COL1A1 expression in stellate cells [2]: modestly decreased both PNPLA3 and COL1A1 in a dose dependent manner
Effect on PNPLA3 mRNA levels in stellate cells [3]: modestly decreased both PNPLA3 and COL1A1 in a dose dependent manner

S=C(NCc1ccc2c(c1)OCO2)N1CCN(c2ncnc3c2oc2ccccc23)CC1 [Amuvatinib]
IC50 [4]: 10 nM
PNPLA3 expression, Fold change (Log 2) vs untreated [5]: −0.52 Log 2
IC50 [6]: 81 nM
IC50 [7]: 40 nM

O=C1Nc2cc(Br)ccc2/C1=C1/Nc2ccccc2/C1=N\O [BIO]
Relative COLIA1 mRNA levels RQ ([2]; 1 μM): 0.74
Relative COLIA1 mRNA levels RQ ([2]; 10 μM): 0.59
Effect on COL1A1 expression in stellate cells [2]: modestly decreased both PNPLA3 and COL1A1 in a dose dependent manner
Effect on PNPLA3 mRNA levels in stellate cells [3]: modestly decreased both PNPLA3 and COL1A1 in a dose dependent manner

COc1nc(N)nc2c1ncn2[C@@H]1O[C@H](COP(=O)(N[C@@H](C)C(=O)OCC(C)(C)C)Oc2cccc3ccccc23)[C@@H](O)[C@@]1(C)O (stereo partly shown) [BMS-986094]
PNPLA3 expression, Fold change (Log 2) vs untreated [5]: −0.69 Log 2

N#CCNC(=O)c1ccc(-c2ccnc(Nc3ccc(N4CCOCC4)cc3)n2)cc1 [Momelotinib, N-(cyanomethyl)-4-{2-[4-(morpholin-4-yl)anilino]pyrimidin-4-yl}benzamide]
PNPLA3 expression in mouse liver [8]: reduced PNPLA3 significantly
Effect on COL1A1 expression in stellate cells [2]: did not alter COL1A1 expression
Effect on PNPLA3 expression in human hepatocytes [1]: substantial decrease; also recorded: dose-dependent response
Response of mutant PNPLA3 mRNA levels in HepG2 cells [9]: dose-dependent manner
Animal body weight, organ weight, other liver genes such as albumin, ASGR1, HAMP1 [10]: No change was observed
Effect on PNPLA3 mRNA levels in stellate cells [3]: reduced PNPLA3 mRNA levels in stellate cells in a dose-dependent manner
IC50 [11]: < 100 nM

CNS(=O)(=O)C[C@H]1CC[C@H](N(C)c2ncnc3[nH]ccc23)CC1 [Oclacitinib]
Effect on PNPLA3 expression in human hepatocytes [1]: efficient downregulation

COc1ccc(-c2cc3c(C)nc(N)nc3n([C@H]3CC[C@H](OCCO)CC3)c2=O)cn1 [PF-04691502]
Relative PNPLA3 mRNA levels ([12]; 1 μM): 0.21 ± 0.10

C1=C/COCc2cc(ccc2OCCN2CCCC2)Nc2nccc(n2)-c2cccc(c2)COC/1 [Pacritinib]
Effect on PNPLA3 expression in human hepatocytes [1]: substantial decrease

NS(=O)(=O)C#Cc1ccccc1 [Pifithrin-μ, 2-Phenylethynesulfonamide]
PNPLA3 expression, Fold change (Log 2) vs untreated [5]: −0.68 Log 2

CCC(=O)N1CCN(c2ccc(-n3c(=O)ccc4cnc5ccc(-c6cnc7ccccc7c6)cc5c43)cc2C(F)(F)F)CC1 [Torin 1]
Relative COL1A1 mRNA levels RQ ([2]; compound 0.01 μM): 0.29
Relative COL1A1 mRNA levels RQ ([2]; compound 0.1 μM): 0.41
Relative COL1A1 mRNA levels RQ ([2]; compound 1 μM): 0.43
Relative COL1A1 mRNA levels RQ ([2]; compound 10 μM): 0.36
Relative PNPLA3 mRNA levels ([12]; 10 μM): 0.53 ± 0.25
Relative PNPLA3 mRNA levels RQ ([3]; compound 0.01 μM): 0.34
Relative PNPLA3 mRNA levels RQ ([3]; compound 0.1 μM): 0.65
Relative PNPLA3 mRNA levels RQ ([3]; compound 1 μM): 0.99
Relative PNPLA3 mRNA levels RQ ([3]; compound 10 μM): 2.39

CNC(=O)Nc1ccc(-c2nc(N3CC4CCC(C3)O4)c3cnn(C4CCC5(CC4)OCCO5)c3n2)cc1 [WYE-125132]
PNPLA3 expression, Fold change (Log 2) vs untreated [5]: −0.86 Log 2
Effect on COL1A1 expression in stellate cells [2]: decreased both PNPLA3 and COL1A1 in HSCs in a dose-dependent manner
COL1A1 expression in mouse liver [13]: reduced COL1A1 expression
Effect on PNPLA3 mRNA levels in stellate cells [3]: decreased both PNPLA3 and COL1A1 in HSCs in a dose-dependent manner

CN1C(=O)c2sccc2N(C)c2nc(Nc3ccc(S(N)(=O)=O)cc3)ncc21 [XMU-MP-1]
PNPLA3 expression, Fold change (Log 2) vs untreated [5]: −0.66 Log 2

Activin
Upregulation of PNPLA3 in the RNA-seq study [5]: best upregulators
Upregulation of PNPLA5 in the RNA-seq study [14]: best upregulators

B1: GDF2 (BMP9) (protein, UniProt Q9UK05 320-429, looked up)
Growth/differentiation factor …: SAGAGSHCQKTSLRVNFEDIGWDSWIIAPKEYEAYECKGGCFFPLADDVTPTKHAIVQTLVHLKFPTKVGKACCVPTKLSPISVLYKDDMGVPTLKYHYEGMSVAECGCR
Upregulation of PNPLA3 in the RNA-seq study [5]: best upregulators
Upregulation of PNPLA5 in the RNA-seq study [14]: best upregulators
